This is an account of results in US6441023B1 (American Home Products Corporation, priority 1997, dated 2002).

Counter-ions that a name gives are not always drawn.

In data set [1] the target is T1, TACE (Homo sapiens, UniProt P78536).
T1 construct: purchased Immunex
In words: Procedure for measuring TACE inhibition. Conditions: read-out: TACE IC 50. It counts as biochemical. How it is done: Using 96-well black microtiter plates, each well receives a solution composed of 10 μL TACE (Inmunex, final concentration 1 μg/mL), 70 μL Tris buffer, pH 7.4 containing 10% glycerol (final concentration 10 mM), and 10 μL of test compound solution in DMSO ([…], DMSO concentration <1%) and incubated for 10 minutes at room temperature. The reaction is initiated by addition of a fluorescent peptidyl substrate (final concentration 100 μM to each well and then shaking on a shaker for 5 sec.
The reaction is read (excitation 340 nm, emission 420 nm) for 10 min. and the increase in fluorescence over time is plotted as a linear line. The slope of the line is calculated and represents the reaction rate.
The mean (xtsem) of the control rate is calculated and compared for statistical significance (p<0.05) with drug-treated rates using Dunnett's multiple comparison test.

Data set [2] addresses T2, MMP 1 (Homo sapiens, UniProt P03956).
T2 construct: human recombinant fibroblast collagenase (truncated, mw=18,828, WAR, Radnor)
T2 sequence (P03956 100-269 limits assumed): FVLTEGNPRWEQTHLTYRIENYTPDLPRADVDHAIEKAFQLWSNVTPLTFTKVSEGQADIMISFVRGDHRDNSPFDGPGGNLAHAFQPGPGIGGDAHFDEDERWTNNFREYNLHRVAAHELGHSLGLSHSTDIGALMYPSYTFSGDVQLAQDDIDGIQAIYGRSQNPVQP
Briefly: In vitro collagenase assay (human recombinant fibroblast collagenase). The format is biochemical. Conditions: for IC50: read-out: MMP 1 IC 50. The protocol: The assay is based on the cleavage of a peptide substrate ((Dnp-Pro-Cha-Gly-Cys(iNe)-His-Ala-Lys(NMa)-NH2), Peptide International, Inc.) by collag,enase releasing the fluorescent NMa group which is quantitated on the fluorometer. Dnp quenches the NiIa fluorescence in the intact substrate. […] Substrate is dissolved in methanol and stored frozen in 1 mM aliquots. Collagenase is stored frozen in buffer in 25 µM aliquots. For the assay, substrate is dissolved in HCBC buffer to a final concentration of 10 μM and collagenase to a final concentration of 5 nM. Compounds are dissolved in methanol, DMSO, or HCBC. The methanol and DMSO are diluted in HCBC to <1.0%. Compounds are added to the 96 well plate containing enzyme and the reaction is started by the addition of substrate.
The slope of the line is calculated and represents the reaction rate.
The mean (x±sem) of the control rate is calculated and compared for statistical significance (p<0.05) with drug-treated rates using Dunnett's multiple comparison test.

Data set [3] addresses T3, MMP 9 (Homo sapiens, UniProt P14780).
T3 construct: from tissue; host or cells: human neutrophils
Briefly: In vitro gelatinase assay (human neutrophil gelatinase B). The format is biochemical. Conditions: read-out: MMP 9 IC 50. The protocol: The assay is based on the cleavage of the thiopeptide substrate ((Ac-Pro-Leu-Gly(2 mercapto-4 methyl-pentanoyl)-Leu-Gly-OEt), Bachem Bioscience) by the enzyme, gelatinase, releasing the substrate product which reacts calorimetrically with DTNB ((5,5′-dithio-bis(2-nitro-benzoic acid)). The enzyme activity is measured by the rate of the color increase.
The thiopeptide substrate is made up fresh as a 20 mM stock in 100% DMSO and the DTNB is dissolved in 100% DMSO as a 100 mM stock and stored in dark at room temperature. Both the substrate and DTNB are diluted together to 1 mM with substrate buffer (50 mM HEPES pH 7.5, 5 mM CaCl2) before use. The stock of human neutrophil gelatinase B is diluted with assay buffer (50 mnM HEPES pH 7.5, 5 mM CaCl2, 0.02% Brij) to a final concentration of 0.15 mnM.
The increase in OD405 is plotted and the slope of the line is calculated which represents the reaction rate.

Data set [4] deals with MMP 13 (Homo sapiens, UniProt P45452). Briefly: MMP 13 inhibition (manual). It counts as biochemical. The settings on record: read-out: MMP 13 IC 50.

T1 sequence (P78536 215-824): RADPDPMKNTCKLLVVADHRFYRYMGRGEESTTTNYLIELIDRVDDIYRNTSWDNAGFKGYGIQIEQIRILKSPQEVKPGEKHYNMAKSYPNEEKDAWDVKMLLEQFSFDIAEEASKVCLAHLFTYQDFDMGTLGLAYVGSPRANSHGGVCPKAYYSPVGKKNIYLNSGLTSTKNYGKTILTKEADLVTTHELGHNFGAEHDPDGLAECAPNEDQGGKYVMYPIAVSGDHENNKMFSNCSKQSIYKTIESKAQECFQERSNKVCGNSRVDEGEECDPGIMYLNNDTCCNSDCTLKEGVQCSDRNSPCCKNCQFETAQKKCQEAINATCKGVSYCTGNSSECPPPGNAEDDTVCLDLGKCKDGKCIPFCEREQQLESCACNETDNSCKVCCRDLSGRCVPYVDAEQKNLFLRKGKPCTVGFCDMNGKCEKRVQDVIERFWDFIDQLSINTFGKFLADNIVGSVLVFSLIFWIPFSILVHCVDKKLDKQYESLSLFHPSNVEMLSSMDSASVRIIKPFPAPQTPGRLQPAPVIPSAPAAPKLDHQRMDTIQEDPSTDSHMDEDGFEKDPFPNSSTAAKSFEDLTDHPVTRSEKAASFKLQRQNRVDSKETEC
T3 sequence (P14780 94-707): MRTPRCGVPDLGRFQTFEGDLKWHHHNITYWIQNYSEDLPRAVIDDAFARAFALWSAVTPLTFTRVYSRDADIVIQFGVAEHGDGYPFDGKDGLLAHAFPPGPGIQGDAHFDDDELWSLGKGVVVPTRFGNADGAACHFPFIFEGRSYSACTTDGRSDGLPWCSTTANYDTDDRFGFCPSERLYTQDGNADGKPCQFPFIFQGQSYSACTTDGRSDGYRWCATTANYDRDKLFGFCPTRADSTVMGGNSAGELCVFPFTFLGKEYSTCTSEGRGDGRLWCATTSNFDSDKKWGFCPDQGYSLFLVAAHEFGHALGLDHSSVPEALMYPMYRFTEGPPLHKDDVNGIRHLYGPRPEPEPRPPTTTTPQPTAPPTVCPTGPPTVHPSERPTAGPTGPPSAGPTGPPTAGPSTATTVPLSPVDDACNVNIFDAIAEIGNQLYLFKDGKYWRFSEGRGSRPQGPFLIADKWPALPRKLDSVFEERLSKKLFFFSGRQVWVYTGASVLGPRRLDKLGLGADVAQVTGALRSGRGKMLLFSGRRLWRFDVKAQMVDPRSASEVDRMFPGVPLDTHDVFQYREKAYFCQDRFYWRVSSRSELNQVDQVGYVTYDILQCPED

`CCCCOc1ccc(S(=O)(=O)C2(C(=O)NO)CCN(Cc3ccc(OCCN4CCCCC4)cc3)CC2)cc1` (as salt: HCl) [Example 242, 4-(4-Butoxy-benzenesulfonyl)-1-[4-(2-piperidin-1-yl-ethoxy)-benzyl]-piperidine-4-carboxylic acid hydroxyamide]: the melting point is 155 °C.
The same measure, in the same setting: the result for `CCCCOc1ccc(S(=O)(=O)C2(C(=O)NO)CCN(Cc3cccc(OCCN4CCOCC4)c3)CC2)cc1` (as salt: HCl) [Example 243, 4(4-Butoxy-benzenesulfonyl)-1-[3-(2-morpholinyl-1-ylthoxy)-benzyl]-piperidine-4-carboxylic acid hydroxyamide] reads 123 °C; that for `CN1CCC(C(=O)NO)(S(=O)(=O)c2ccc(Oc3ccc(Cl)cc3)cc2)CC1` (as salt: HCl) [Example 249, 4-[4-(4-chloro-phenoxy)-benzenesulfonyl]1-methyl-piperidine-4-carboxylic acid hydroxyamide], 52 °C; that for `CCN1CCC(C(=O)NO)(S(=O)(=O)c2ccc(Oc3ccc(Cl)cc3)cc2)CC1` (as salt: HCl) [Example 250, 4-[4-(4-chloro-phenoxy)-benzenesulfonyl]1-ethyl-piperidine-4-carboxylic acid hydroxyamide], 158 °C.
The same measure, in the same setting: the result for `CCCCOc1ccc(S(=O)(=O)C2(C(=O)NO)CCN(Cc3cccc(OC)c3)CC2)cc1` (as salt: HCl) [Example 260, 4-(4-butoxy-benzenesulfonyl)-1-(3-methoxy-benzyl)-piperidine-4-carboxylic acid hydroxyamide] reads 137 °C; that for `COc1ccc(S(=O)(=O)C2(C(=O)NO)CCN(Cc3ccc(-c4ccccn4)cc3)CC2)cc1` (as salt: HCl) [Example 262, 4-(4-methoxy-benzenesulfonyl)-1-(4-pyridin-2-yl-benzyl)-piperidine-4-carboxylic acid hydroxyamide], 214 °C; that for `CCCCOc1ccc(S(=O)(=O)C2(C(=O)NO)CCN(Cc3ccc(Cl)c(Cl)c3)CC2)cc1` (as salt: HCl) [Example 263, 1-(3,4-Dichlorobenzyl)-4-(4-butoxy-benzenesulfonyl)-piperidine-4-carboxylic acid hydroxyamide], 256.8 °C.
The same measure, in the same setting: with `CN1CCC(C(=O)NO)(S(=O)(=O)c2ccc(OCc3ccc(Cl)cc3)cc2)CC1` (as salt: HCl) [Example 264, [4-(4-Chloro-benzyloxy)benzenesulfonyl]-1-methylpiperidine-4-carboxylic acid hydroxamide] the figure was 117.8 °C; with `Cc1ccc(CN2CCC(C(=O)NO)(S(=O)(=O)c3ccc(OCc4ccc(Cl)cc4)cc3)CC2)cc1` (as salt: HCl) [Example 266, [4-(4-Chloro-benzyloxy)-benzenesulfonyl]-1-(4-methylbenzyl)-piperidine-4-carboxylic acid hydroxamide], 172 °C; with `CCCCOc1ccc(S(=O)(=O)C2(C(=O)NO)CCN(Cc3ccc(C)cc3)CC2)cc1` (as salt: HCl) [Example 267, 4-(4-Butoxy-benzenesulfonyl)-1-(4-methylbenzyl)-piperidine-4-carboxylic acid hydroxamide], 137 °C.
Turning to `CCCCOc1ccc(S(=O)(=O)C2(C(=O)NO)CCN(Cc3ccc(C#N)cc3)CC2)cc1` (as salt: HCl) [Example 268, 4-(4-Butoxy-benzenesulfonyl)-1-(4-cyano-benzyl)-piperidine-4-hydroxamide carboxylic acid hydroxamide], the melting point came out at 241.6 °C.
Same read-out and setting: with `CCCCOc1ccc(S(=O)(=O)C2(C(=O)NO)CCN(Cc3ccncc3)CC2)cc1` (as salt: HCl) [Example 269, 4-(4-Butoxy-benzenesulfonyl)-1-pyridin-4-ylmethyl-piperidine-4-carboxylic acid hydroxamide] the figure was 118 °C.
`CCCC(Cc1ccc(OCCN2CCOCC2)cc1)(C(=O)NO)S(=O)(=O)c1ccc(OC)cc1` (stereo not drawn) [Example 35, 2-(4-Methoxy-benzenesulfonyl)-2-[4-(2-morpholin-4-yl-ethoxy)-benzyl]-pentanoic acid hydroxyamide] showed a melting point of 101 °C. Further, the IC50 in data set [1] was 44.9 nM.
`COc1ccc(S(=O)(=O)C(Cc2cccnc2)(CC(C)C)C(=O)NO)cc1` (stereo not drawn) [Example 66, 2-(4-Methoxy-benzenesulfonyl)-4-methyl-2-pyrdin-3-yh nethyl-pentoic acid hydroxyamide] displayed a melting point of 78 °C.
The same measure, in the same setting: the result for `CC#CCC(Cc1cccnc1)(C(=O)NO)S(=O)(=O)c1ccc(F)cc1` (stereo not drawn) [Example 76, 2-(4-Fluoro-benzenesulfonyl)-2-pyridin-3-ylmethyl-hex4-ynoic acid hydroxyamide] reads 150 °C.
Same read-out and setting: the result for `CCCCCC#CCC(Cc1cccnc1)(C(=O)NO)S(=O)(=O)c1ccc(F)cc1` (stereo not drawn) [Example 77, 2-(4-Fluoro-benzenesulfonyl)-2-pyridin-3-ylmethyl-decfynoic acid hydroxyamide] reads 123 to 124 °C; that for `COc1ccc(S(=O)(=O)C2(C(=O)NO)CCN(Cc3ccccc3)CC2)cc1` [Example 83, 1-Benzyl-4-(4-methoxy-benzenesulfonyl)-piperidine-4carboxylic Acid hydroxyamide], 90 to 95 °C.
`O=C(NO)C1(S(=O)(=O)c2ccc(OCc3ccccc3)cc2)CCN(Cc2ccccc2)CC1` [Example 241, 1-Benzyl-4-(4-benzyloxy-benzenesulfonyl)-piperidinefcarboxylic acid hydroxyamide] returned a melting point of 89 °C. For the same compound, the inhibition at 10 µM in data set [2] (read-out: MMP 1 % inhibition at 10 micromolar (*)) was found to be 48.2%. Further, in data set [3], the IC50 stood at 2.7 nM. Further, the IC50 in data set [1] turned out to be 277 nM.
Regarding `CCCCOc1ccc(S(=O)(=O)C2(C(=O)NO)CCN(C)CC2)cc1` [Example 244, 1-Methyl-4-(4-butoxy-benzenesulfonyl)-piperidine-4-carboxylic acid hydroxyamide], the melting point amounted to 118 °C. In addition, the IC50 in data set [2] was 3420 nM. The IC50 in data set [4] amounted to 1.5 nM. Moreover, the IC50 in data set [3] came out at 9.8 nM. Further, in data set [1], the IC50 amounted to 594 nM.
Consider `CCCCOc1ccc(S(=O)(=O)C2(C(=O)NO)CCN(Cc3ccc(C)cc3)CC2)cc1` [Example 267, 4-(4-Butoxy-benzenesulfonyl)-1-(4-methylbenzyl)-piperidine-4-carboxylic acid hydroxamide], for which the IC50 in data set [2] was 3620 nM; in data set [4] it was 2.3 nM; in data set [3] it was 5.4 nM; in data set [1] it was 508 nM.
For `CCCCOc1ccc(S(=O)(=O)C2(C(=O)NO)CCN(Cc3ccc(C#N)cc3)CC2)cc1` [Example 268, 4-(4-Butoxy-benzenesulfonyl)-1-(4-cyano-benzyl)-piperidine-4-hydroxamide carboxylic acid hydroxamide], in that order: 2290 nM, 1.1 nM, 2.8 nM and 278 nM.
The matching figures for `CCCCOc1ccc(S(=O)(=O)C2(C(=O)NO)CCN(Cc3ccncc3)CC2)cc1` [Example 269, 4-(4-Butoxy-benzenesulfonyl)-1-pyridin-4-ylmethyl-piperidine-4-carboxylic acid hydroxamide]: 2070 nM, 1.4 nM, 2.2 nM and 296 nM.
